Entries after “also recorded” stand apart in the source; their conditions may differ.
Legend:
[1] = tested on: Stat3 phosphorylation (p-Tyr705) induced by IL-6 in LNCaP prostate cancer cells; assay: IL-6 induced Stat3 phosphorylation in LNCaP cells, Western blot; format: cell-based; conditions: IL-6 12.5 ng/ml 30 min, Western blot
Procedure: LNCaP prostate cancer cells were acquired from American Type Culture Collection. Cells were maintained in RPMI 1640 medium, 1× with 4.5 g/L L-glutamine, supplemented with 10% FBS, 100 U/ml penicillin and […] streptomycin (Invitrogen), in a humidified atmosphere of 5% CO2 at 37° C.
LNCaP prostate cancer cells were seeded in T75 flasks, grown to 50% confluence and serum-starved the following night. The cells were left untreated or were treated with MDL-A (100-400 μM), 1, 2 (5-40 μM) or DMSO in the absence of FBS. After 4 hours, the cells were stimulated with 12.5 ng/ml IL-6 (Cell Signaling Technology). The cells were then harvested at 30 minutes and washed with PBS and lysed in cold M-PER lysis buffer (Pierce) containing protease inhibitors (Sigma) and phosphatase inhibitors (Roche). Lysates were centrifuged at 14,000 rpm for 15 minutes at 4° C. and supernatants were collected and stored at −20° C. until further use.
Cell lysates were assayed for their protein concentrations using the Bradford protein assay reagent (Pierce), using BSA (Fisher Scientific) as the standard. Lysate samples were adjusted for the same protein concentration, approximately 5 μg of sample protein was loaded into each of the appropriate lanes. Protein samples were separated by SDS-PAGE and electrotransferred to PVDF membranes. The membranes were washed and blocked with 5% BSA in TBST (60 mM Tris-base, 120 mM NaCl, 0.1% Tween-20) for at least one hour and incubated with anti-phospho-STAT3 (p-Tyr705) antibody, anti-STAT3 antibody or anti-GAPDH antibody (all from Cell Signaling Technology) in 5% BSA in TBST overnight at 4° C. Blots were then washed three times in TBST and incubated with a horseradish peroxidase-conjugated goat anti-rabbit IgG secondary antibody (Cell Signaling Technology) in 5% BSA in TBST for 1 hour at room temperature. The bound antibody was detected using Enhanced Chemiluminescence detection reagents (Pierce) according to the manufacturer's instructions and chemiluminescence visualized using ECL Hyperfilm (Amersham).

[2] = biological target: T1, GP130 (Homo sapiens, UniProt P40189); assay: Literature binding of madindoline A to GP130; conditions: compared with the docking free energy
T1 sequence (P40189 23-918): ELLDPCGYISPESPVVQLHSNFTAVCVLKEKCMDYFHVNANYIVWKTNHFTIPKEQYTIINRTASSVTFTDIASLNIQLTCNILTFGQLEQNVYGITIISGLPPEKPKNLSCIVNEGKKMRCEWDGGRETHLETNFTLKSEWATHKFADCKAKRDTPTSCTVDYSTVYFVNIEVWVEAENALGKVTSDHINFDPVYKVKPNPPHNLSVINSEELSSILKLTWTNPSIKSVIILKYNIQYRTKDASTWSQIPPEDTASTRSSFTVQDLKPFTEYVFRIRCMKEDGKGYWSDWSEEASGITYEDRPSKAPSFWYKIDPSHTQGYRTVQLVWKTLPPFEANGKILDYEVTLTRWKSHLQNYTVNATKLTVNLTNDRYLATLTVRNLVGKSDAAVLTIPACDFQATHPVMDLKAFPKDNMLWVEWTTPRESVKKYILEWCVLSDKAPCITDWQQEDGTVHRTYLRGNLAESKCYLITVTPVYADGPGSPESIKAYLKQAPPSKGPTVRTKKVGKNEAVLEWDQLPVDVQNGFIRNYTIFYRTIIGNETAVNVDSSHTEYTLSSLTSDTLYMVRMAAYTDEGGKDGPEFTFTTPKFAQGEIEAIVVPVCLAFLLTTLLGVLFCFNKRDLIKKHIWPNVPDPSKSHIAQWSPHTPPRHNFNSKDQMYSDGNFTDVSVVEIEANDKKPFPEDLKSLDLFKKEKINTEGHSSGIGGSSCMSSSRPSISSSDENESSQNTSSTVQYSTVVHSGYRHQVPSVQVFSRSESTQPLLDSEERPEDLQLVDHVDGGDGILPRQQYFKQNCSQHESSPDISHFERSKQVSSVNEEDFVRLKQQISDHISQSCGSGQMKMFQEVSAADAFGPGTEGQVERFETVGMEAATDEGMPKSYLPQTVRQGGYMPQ
Text: Several synthetic approaches to the preparation of the natural product have been reported (ref. 22 and references therein), but due to the length and complexity of the syntheses cannot be applied economically in a pharmaceutical process. A structure-based approach to the synthesis of madindoline A analogues has not yet been reported.

[3] = biological target: T1, GP130; conditions: reported by Saleh et al.; read-out: GP130 binding affinity KD; cited from earlier work
[4] = tested on: IL-6-dependent murine hepatoma cell line MH60; conditions: Omura and coworkers; cited from earlier work
[5] = tested on: IL-6-independent MH60 cells; conditions: Omura and coworkers; cited from earlier work
[6] = tested on: IL-6-dependent STAT3 tyrosine phosphorylation in HepG2 cells; conditions: Saleh and coworkers; cited from earlier work

CCCCC1=C(C)C(=O)[C@@](C)(CN2c3ccccc3[C@]3(O)CCO[C@H]23)C1=O [MDL-A, (+)-Madindoline A, reference compound]
inhibition of Stat3 phosphorylation induced by IL6 [1]: inhibit Stat3 phosphorylation; also recorded: dose dependent inhibition | experimental binding free energy [2]: -5.0 kcal/mol | Kd [3]: 288 µM | growth of IL-6-dependent MH60 cells [4]: specifically inhibited the growth | growth of IL-6-independent MH60 cells [5]: unaffected | IL-6-dependent STAT3 tyrosine phosphorylation [6]: inhibits IL-6-dependent STAT3 tyrosine phosphorylation

Reference: patent US20140315956A1, “SMALL MOLECULE INHIBITORS OF IL-6 AND USES THEREOF” (NATIONWIDE CHILDREN'S HOSPITAL, priority 2011, published 2014)
